# Reference: patent publication US7307166B1, “Oxpurine nucleosides and their congeners, and acyl, derivatives thereof, for improvement of hematopoiesis” (Wellstat Therapeutics Corporation, priority 1987, dated 2007)
# Columns and labels:
# FDCPmix cells = experiment: FDCPmix cell proliferation in the presence of IL-3 (MTT assay); format: cell-based
# Protocol: The FDCPmix cell line was used as a suitable in vitro model for predicting the effects of hematopoietic factors on pluripotential stem cells. These cells can be maintained in an undifferentiated state in the presence of IL-3 or undergo multi-lineage development in the presence of specific hematopoietic growth factors.
# This level of proliferation (100%) served as the control value. Inhibition of proliferation by test compounds was represented as a percent of control.
# FDCPmix cells were plated at a density of 5×10^4 cells per well in 96-well plates (5×10^5/ml) using IMDM medium plus 10% fetal bovine serum. […] Test compounds were added at a decreasing concentrations ranging from 10 micrograms/ml down to 1 nanogram/ml. The test compounds included: 3′,5′-O—N^2-tripalmitoyl-2′-deoxyguanosine, 3′,5′-di-O-palmitoyl-2′-deoxy-guanosine, 3′,5′-O—N^2-trioctanoyl-2′-deoxyguanosine, 3′,5′-di-O-octanoyl-2′-deoxyguanosine, and 3′,5′-o-N^2-trioleyl-2′-deoxy-guanosine.
# female Balb/C mice [1] = experiment: Cisplatin-induced myelosuppression; format: in vivo, mouse; details: for survival: day 11
# Protocol: A study was conducted to assess the effects of N^2,3′,5′-tripalmitoyldeoxyguanosine (PdG) in reducing the hematologic toxicity of cisplatin. Female Balb/C mice were divided into groups of five animals each per dose per time point. Half of the groups were given a series of three daily doses of PdG (25 mg/kg) by intraperitoneal injection and the other half were treated with the vehicle alone. Twenty-four hours later, the animals were given a single dose of cisplatin by intraperitoneal injection at one of four doses: 8, 11, 12 or 15 mg/kg. Blood samples were taken by retro-orbital eye bleed at four, seven and 11 days after administration of cisplatin.
# female Balb/C mice [2] = experiment: Survival after bacterial endotoxin (salmonella typhimurium LPS); format: in vivo, mouse; details: 21-day observation; LPS 100 μg (5 mg/kg); 25 mg/kg i.p. daily 3 days prior
# Protocol: In an experiment to test the effect of N^2,3′,5′-tripalmitoyldeoxyguanosine (PdG) on animals challenged by endotoxin, 42 female Balb/C mice were divided into three groups of 14 animals each. Each group was given a single 100 μg dose (5 mg/kg) of salmonella typhimurium LPS. Two of the groups were treated once per day for three days prior to receiving the LPS by intraperitoneal injection with either 25 mg/kg PdG or with vehicle alone. The third group received no pretreatment. Survival of the animals was monitored for 21 days subsequent to the LPS dose.
# TNF-alpha = experiment: LPS-induced serum TNF-alpha (ELISA); format: in vivo, mouse
# Protocol: Sixty-three female Balb/C mice were randomly assigned to one of three groups. The animals in one group received a single daily dose of N^2,3′,5′-tripalmitoyldeoxyguanosine (PdG) (25 mg/kg, i.p.), while a second group received a single daily dose of the PdG treatment vehicle (control). The third group was left untreated. On the fourth day 100 μg salmonella typhimurium LPS was administered to all three groups. Serum samples were taken just prior to LPS administration (t=0) and at two, four, six, eight, ten, twelve, sixteen, and twenty hours after LPS administration. The samples were then frozen until the time of assay. Serum levels of TNF-alpha, and IFN-gamma were measured by ELISA.
# In the tables below, units for cytokine concentrations are picograms per ml. A value of 0 indicates cytokine levels below the detection limit of the assay (50 to 100 pg/ml).
# female Balb/C mice [3] = experiment: Survival of mice irradiated with Cobalt 60 gamma radiation; format: in vivo, mouse; details: for number of mice surviving 30 days after irradiation over number irradiated: 50 mg/kg i.p. daily 6 days from 24 h after irradiation
# [4] = test system: Normal Balb/C female mice; experiment: Hematopoiesis in normal mice; format: in vivo, mouse
# Protocol: Normal, otherwise untreated, female Balb/C mice weighing approximately 20 grams each received a total of 4 or 9 0.4 ml intraperitoneal injections (one per day) of either Tween-80 (0.2%) (controls), palmitoylguanosine ([…]), or palmitoyldeoxyinosine ([…]). Twenty-four hours after the 4th or 9th treatment, groups of 5 or 6 animals from each of the 3 groups were bled and then sacrificed by cervical dislocation. Spleens were removed and weighed, and complete blood cell counts performed.
# Normal Balb/C female mice weighing approximately 20 grams each were given a daily 0.4 ml i.p. injection of either physiological saline (controls), palmitoylguanosine (2.6 μmoles/mouse), palmitoyldeoxyguanosine (2.6 μmoles/mouse), monopalmitoylguanosine 2′,3′-acyclic dialcohol (2.6 μmoles/mouse), and palmitoyl-8-bromoguanosine (2.6 μmoles/mouse) for 4 days. On the fifth day all 3 animals in each of the 5 groups were bled and then sacrificed by cervical dislocation. Spleens were removed and weighed, and complete blood cell counts performed. Femoral bone marrow from each mouse was collected and a differential cell count performed on marrow smears.
# [5] = day 4 after cisplatin 8 mg/kg, PdG 25 mg/kg x3 before
# [6] = day 4 after cisplatin 11 mg/kg, PdG 25 mg/kg x3 before
# [7] = day 4 after cisplatin 12 mg/kg, PdG 25 mg/kg x3 before
# [8] = day 4 after cisplatin 15 mg/kg, PdG 25 mg/kg x3 before
# [9] = day 7 after cisplatin 8 mg/kg, PdG 25 mg/kg x3 before
# [10] = day 7 after cisplatin 11 mg/kg, PdG 25 mg/kg x3 before
# [11] = day 7 after cisplatin 12 mg/kg, PdG 25 mg/kg x3 before
# [12] = day 7 after cisplatin 15 mg/kg, PdG 25 mg/kg x3 before
# [13] = day 11 after cisplatin 8 mg/kg, PdG 25 mg/kg x3 before
# [14] = day 11 after cisplatin 11 mg/kg, PdG 25 mg/kg x3 before
# [15] = day 11 after cisplatin 12 mg/kg, PdG 25 mg/kg x3 before
# [16] = day 11 after cisplatin 15 mg/kg, PdG 25 mg/kg x3 before
compound,measurement,setting,value
"CCCCCCCCCCCCCCCC(=O)Nc1nc2c(ncn2[C@H]2C[C@H](OC(=O)CCCCCCCCCCCCCCC)[C@@H](COC(=O)CCCCCCCCCCCCCCC)O2)c(=O)[nH]1 [PdG, 3′,5′-O-N^2-tripalmitoyl-2′-deoxyguanosine]",Cell proliferation (% of Control),FDCPmix cells; Dose 10 ng,78 ± 1 % of Control
same,Cell proliferation (% of Control),FDCPmix cells; Dose 39 ng,76 ± 2 % of Control
same,Cell proliferation (% of Control),FDCPmix cells; Dose 156 ng,72 ± 3 % of Control
same,Cell proliferation (% of Control),FDCPmix cells; Dose 625 ng,60 ± 2 % of Control
same,Cell proliferation (% of Control),FDCPmix cells; Dose 2.5 μg,51 ± .7 % of Control
same,Cell proliferation (% of Control),"FDCPmix cells; Dose 10 μg, 48 hours, IL-3 25 units/ml",51 ± .6 % of Control
same,effect on red blood cells,female Balb/C mice [1]; any time point,no effect
same,WBC,"female Balb/C mice [1]; day 4 after cisplatin 8 mg/kg, PdG 25 mg/kg i.p. 3 daily doses before",10.2 ± 1.4 K/μL
same,Lymphocytes,female Balb/C mice [1]; [5],8.0 ± 0.9 K/μL
same,Neutrophils,female Balb/C mice [1]; [5],1.77 ± 0.3 K/μL
same,Lymphocytes,female Balb/C mice [1]; [6],7.9 ± 1.1 K/μL
same,Neutrophils,female Balb/C mice [1]; [6],3.99 ± 0.7 K/μL
same,WBC,female Balb/C mice [1]; [6],7.2 ± 0.6 K/μL
same,Lymphocytes,female Balb/C mice [1]; [7],5.14 ± 1.0 K/μL
same,Neutrophils,female Balb/C mice [1]; [7],1.59 ± 0.3 K/μL
same,WBC,female Balb/C mice [1]; [7],6.9 ± 0.9 K/μL
same,Lymphocytes,female Balb/C mice [1]; [8],4.37 ± 0.61 K/μL
same,Neutrophils,female Balb/C mice [1]; [8],2.69 ± 1.3 K/μL
same,WBC,female Balb/C mice [1]; [8],7.1 ± 1.0 K/μL
same,Lymphocytes,female Balb/C mice [1]; [9],5.38 ± 0.71 K/μL
same,Neutrophils,female Balb/C mice [1]; [9],2.74 ± 0.50 K/μL
same,Platelets,female Balb/C mice [1]; [9],910 ± 135 K/μL
same,Lymphocytes,female Balb/C mice [1]; [10],5.44 ± 0.22 K/μL
same,Neutrophils,female Balb/C mice [1]; [10],4.58 ± 0.3 K/μL
same,Platelets,female Balb/C mice [1]; [10],974 ± 49 K/μL
same,WBC,female Balb/C mice [1]; [10],9.4 ± 0.83 K/μL
same,Lymphocytes,female Balb/C mice [1]; [11],5.14 ± 0.91 K/μL
same,Neutrophils,female Balb/C mice [1]; [11],3.23 ± 0.7 K/μL
same,WBC,female Balb/C mice [1]; [11],8.5 ± 0.9 K/μL
same,Lymphocytes,female Balb/C mice [1]; [12],2.80 ± 0.44 K/μL
same,Neutrophils,female Balb/C mice [1]; [12],4.06 ± 0.46 K/μL
same,WBC,female Balb/C mice [1]; [12],7.0 ± 0.38 K/μL
same,survival,female Balb/C mice [1]; 12 mg/kg cisplatin (60% of the controls had died),All
same,survival,female Balb/C mice [1]; 15 mg/kg cisplatin (all control animals dead),three of five
same,Lymphocytes,female Balb/C mice [1]; [13],7.9 ± 0.5 K/μL
same,Neutrophils,female Balb/C mice [1]; [13],1.33 ± 0.32 K/μL
same,Platelets,female Balb/C mice [1]; [13],994 ± 29 K/μL
same,WBC,female Balb/C mice [1]; [13],9.3 ± 0.3 K/μL
same,Lymphocytes,female Balb/C mice [1]; [14],7.9 ± 1.23 K/μL
same,Neutrophils,female Balb/C mice [1]; [14],1.00 ± 0.37 K/μL
same,Platelets,female Balb/C mice [1]; [14],968 ± 47 K/μL
same,WBC,female Balb/C mice [1]; [14],8.7 ± 1.0 K/μL
same,Lymphocytes,female Balb/C mice [1]; [15],5.34 ± 0.73 K/μL
same,Neutrophils,female Balb/C mice [1]; [15],3.26 ± 0.48 K/μL
same,Platelets,female Balb/C mice [1]; [15],738 ± 35 K/μL
same,WBC,female Balb/C mice [1]; [15],8.7 ± 0.6 K/μL
same,Lymphocytes,female Balb/C mice [1]; [16],7.65 ± 0.49 K/μL
same,Neutrophils,female Balb/C mice [1]; [16],2.02 ± 0.68 K/μL
same,Platelets,female Balb/C mice [1]; [16],657 ± 113 K/μL
same,WBC,female Balb/C mice [1]; [16],9.7 ± 0.3 K/μL
same,platelet counts higher than in vehicle-treated control animals,"female Balb/C mice [1]; day four, cisplatin 8 mg/kg",approximately 30%
same,survival,female Balb/C mice [2],All
same,serum TNF-alpha,"TNF-alpha; 0 hr after LPS 100 μg, PdG 25 mg/kg i.p. daily before, 0 = below detection limit",0 picograms per ml
same,serum TNF-alpha,TNF-alpha; 2 hr after LPS,1509 ± 86 picograms per ml
same,serum TNF-alpha,TNF-alpha; 4 hr after LPS,529 ± 141 picograms per ml
same,serum TNF-alpha,TNF-alpha; 6 hr after LPS,486 ± 63 picograms per ml
same,Peak TNF-alpha levels vs control groups,TNF-alpha; PdG 25 mg/kg i.p.,four-fold lower
CCCCCCCCCCCCCCCC(=O)OC[C@H]1O[C@@H](n2cnc3c(=O)[nH]c(N)nc32)[C@H](O)[C@@H]1O,number of mice surviving 30 days after irradiation over number irradiated,female Balb/C mice [3]; 725 R,5/5
same,number of mice surviving 30 days after irradiation over number irradiated,female Balb/C mice [3]; 750 R,5/5
same,survival,female Balb/C mice [3]; pretreatment prior to irradiation,improved survival
same,spleen weights,"[4]; Ex 44: day 5, 2.5 Moles/mouse/day i.p., 4 injections",significantly greater
same,total leukocyte counts,"[4]; Ex 44: day 10, 9 injections",significantly elevated
same,spleen weight,"[4]; Ex 56: fifth day, 2.6 μmoles/mouse i.p. daily 4 days",significantly elevated
